Source: patent EP0972764A1, “Aminoalcohols and aminoketones as CNS active agents” (Universita Degli Studi di Firenze, priority 1998, dated 2000)

Experiments:
[1] = target: T1, S2 (Serotonine) receptors (Rattus norvegicus, UniProt P14842); experiment: In vitro inhibition of 3H-spiperone binding, S2 assay (rat brain membranes)
T1 construct: preparation of rat brain membrane enriched in D2 (Dopamine) or S2 (Serotonine) receptors; from tissue; host or cells: rat brain membranes
Method: The compounds I, prepared according to the present invention, were tested in vitro on preparation of rat brain membrane enriched in D2 (Dopamine) or S2 (Serotonine) receptors accordingly known methods to perform inhibition experiments of the binding of ^3H-receptors ligands. For the S2 receptor assay the method described by List and Seeman (List S.J. and Seeman P. Proc. Natl. Acad. Sci. USA. 78:2620-2624, 1981) was used with slight adaptations.

D2 (Dopamine) receptors = target: T2, D2 (Dopamine) receptors (Rattus norvegicus, UniProt P61169); experiment: In vitro inhibition of 3H-spiperone binding, D2 assay (rat brain membranes)
T2 construct: preparation of rat brain membrane enriched in D2 (Dopamine) or S2 (Serotonine) receptors; from tissue; host or cells: rat brain membranes
Method: The compounds I, prepared according to the present invention, were tested in vitro on preparation of rat brain membrane enriched in D2 (Dopamine) or S2 (Serotonine) receptors accordingly known methods to perform inhibition experiments of the binding of ^3H-receptors ligands.
For the D2 assays the method described by Ferretti et al. (Life Sci 42(24):2457-65, 1988) was used.

[2] = First pass cerebral extraction in the rat (blood brain barrier crossing of radiolabelled compound); assay type: in vivo; conditions: intracardiac injection, physiological rCBF range 0.8-1 ml/min/g
Method: Compounds I, prepared according to the present invention and containing radioactive isotopes were tested inrespect of their capacity to cross the brain blood barrier, since CNS receptors tracers should be able to pass through the intact blood brain barrier following intravenous injection.
Measures of the rat brain extraction of the compounds was determined following known procedures based on the use of labelled reference substances with known extraction.
In the rat the first pass cerebral extraction of N-benzyl-3-(4-fluoro-2-^125I-iodo-fenil)-hydroxypropylamine [compound I with R1 = H and R2 = Benzyl, Q = single bond Wn = 2-^125I, 4-F, n = 2, A = OH, m = 0, a = single bond] was evaluated measuring the radioactive compounds concentration in the brain, after an intracardiac injection of a mixture of the tested compound, a completely extracted tracer, as the albumin microspheres labelled with ^99mTc (undergoing to a sort of entrapment in the brain microvasculature) and a non extracted tracer as the sodium salt of hortoiodoippuric acid.

T2 sequence (P61169 whole entry): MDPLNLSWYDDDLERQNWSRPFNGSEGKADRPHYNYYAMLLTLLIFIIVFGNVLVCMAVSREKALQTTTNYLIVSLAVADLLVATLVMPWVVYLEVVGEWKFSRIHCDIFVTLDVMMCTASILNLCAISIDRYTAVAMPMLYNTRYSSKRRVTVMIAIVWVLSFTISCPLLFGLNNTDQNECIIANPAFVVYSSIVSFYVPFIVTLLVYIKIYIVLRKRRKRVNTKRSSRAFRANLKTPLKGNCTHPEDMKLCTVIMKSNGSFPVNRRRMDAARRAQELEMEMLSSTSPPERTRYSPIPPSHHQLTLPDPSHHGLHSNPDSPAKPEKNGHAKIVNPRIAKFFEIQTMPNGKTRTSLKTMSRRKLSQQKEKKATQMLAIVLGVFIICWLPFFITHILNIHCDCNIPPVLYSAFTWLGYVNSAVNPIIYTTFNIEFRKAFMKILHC
T1 sequence (P14842 whole entry): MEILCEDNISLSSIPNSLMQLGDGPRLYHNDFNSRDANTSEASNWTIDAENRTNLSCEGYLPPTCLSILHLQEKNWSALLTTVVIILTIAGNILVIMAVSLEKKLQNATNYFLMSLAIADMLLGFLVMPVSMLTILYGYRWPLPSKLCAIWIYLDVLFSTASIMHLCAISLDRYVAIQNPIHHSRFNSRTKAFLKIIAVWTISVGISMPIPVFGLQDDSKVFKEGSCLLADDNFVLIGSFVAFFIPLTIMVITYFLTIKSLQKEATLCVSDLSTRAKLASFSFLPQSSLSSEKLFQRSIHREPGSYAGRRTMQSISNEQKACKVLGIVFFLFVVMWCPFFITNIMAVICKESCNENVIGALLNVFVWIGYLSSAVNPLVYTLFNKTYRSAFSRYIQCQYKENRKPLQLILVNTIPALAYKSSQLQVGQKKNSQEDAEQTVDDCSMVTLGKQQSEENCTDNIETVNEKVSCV

2-[3-(4-fluorophenyl)-3-oxopropyl]-tetrahydro-2H-isoindole
binding affinity, column T1 ([1]; compounds at 10 µM concentration, rat brain membrane, unit not given, column head T1, text says S2): 65 | binding affinity towards D2 receptors (column D2) (D2 (Dopamine) receptors; compounds at 10 µM concentration, rat brain membrane, unit not given): 12

OC(CCNCc1ccccc1)c1ccc(F)cc1Br (racemic) [N-benzyl-3-(2-bromo-4-fluorophenyl)-3-hydroxypropylamine]
IC50 ([1]; inhibition of ^3H-spiperone binding, S2 assay, tested in its racemic form): 18.7 µM | IC50 (D2 (Dopamine) receptors; inhibition of ^3H-spiperone binding, D2 assay, tested in its racemic form): 34 µM

OC(CCNCc1ccccc1)c1ccc(F)cc1[125I] (centres unmarked) [N-benzyl-3-(4-fluoro-2-^125I-iodo-fenil)-hydroxypropylamine]
cerebral tissue extraction fraction [2]: about 50%
